Data as given in patent US11478451B1, “Macrocyclic chlorine substituted indole derivatives” (Bayer Aktiengesellschaft, priority 2017, dated 2022).
Like-named read-outs stand apart in the source and are kept apart here.

Tests used:
SUDHL5 cells [1] = assay: Antiproliferation assay (CellTiter-Glo, 72 h), SUDHL5; type: cell-based; settings: IC50, median, SUDHL5, 72 h, read-out: Antiproli SUDHL5 [M] (median)
Experimental: (§1) Assessment of the Anti-Proliferative Effect of Compounds in Different Cell Lines
(§2) The impact of compounds on the proliferation of different cell lines was assessed using the CellTiter-Glo® Luminescent Cell Viability reagent from Promega (G7573).
(§3) In parallel, cells were plated in a reference (day 0) plate for time zero determination.
(§4) Rim wells were excluded. The cells were incubated for 72 h hours in a humidified incubator at 37° C. The day 0 plate was measured by adding 30 μL/well of CTG solution (CellTiter-Glo® Luminescent Cell Viability reagent, Promega G7573) to time zero wells in the reference plate followed by a 10 minutes incubation and luminescence reading at 0.1 ms. using the PHERAstar FS microplate reader (BMG Labtech).
(§5) After 72 h incubation, the treated plates were measured in the same way as the day 0 plate mentioned above.

SUDHL10 cells [2] = assay: Induction of caspase-3/7 activity (Caspase-Glo 3/7), SUDHL10; type: cell-based; settings: EC50, median, SUDHL10, 3 h treatment
Experimental: (§6) Induction of Caspase-3/7 Activity Upon Treatment of Cells with Selected Compounds
(§7) The BH3-domain of MCL-1 sequesters pro-apoptotic proteins, thereby inhibiting apoptosis. In contrast, MCL-1 inhibitors are expected to antagonize this effect leading to an increase in apoptosis, which can be determined by measuring the activity of caspase-3/7.
(§8) The activity of caspase-3/7 was determined in DLBCL (Diffuse large B-cell lymphoma) cell lines (SUDHL5 and SUDHL10) upon treatment with different compounds, using the Caspase-Glo® 3/7 reagent from Promega (G8092).
(§9) Rim wells were excluded. The cells were incubated for 3 h hours in a humidified incubator at 37° C.
(§10) For the evaluation of the results, the background measured with “medium-only” was subtracted from all other values.

AMO-1 cells = assay: Antiproliferation assay (CellTiter-Glo, 72 h), AMO-1; type: cell-based; settings: IC50, median, AMO-1, 72 h, read-out: Antiproli AMO-1 [M] median
Experimental: as §1, §2, §3, §4, §5

SUDHL5 cells [3] = assay: Induction of cytotoxicity (CellTiter-Glo, 5 h), SUDHL5; settings: SUDHL5, 5 h
SUDHL10 cells [4] = assay: Induction of cytotoxicity (CellTiter-Glo, 5 h), SUDHL10; settings: SUDHL10, 5 h
SUDHL5 cells [5] = assay: Induction of caspase-3/7 activity (Caspase-Glo 3/7), SUDHL5; type: cell-based; settings: EC50, median, SUDHL5, 3 h treatment
Experimental: as §6, §7, §8, §9, §10

[6] = read-out: Cytotox SUDHL5 [M] (median), IC50, median
[7] = Homo sapiens, SU-DHL-5, 5 h, read-out: Cytotox SUDHL5 [M] (median), IC50, median
[8] = Homo sapiens, SU-DHL10, 5 h, read-out: Cytotox SUDHL10 [M] (median), IC50, median

| SMILES | IC50 (SUDHL5 cells [1]) [M] | EC50 (SUDHL10 cells [2]) [µM] | IC50 (AMO-1 cells) [M] | IC50 (SUDHL5 cells [3]; [6]) [M] | IC50 (SUDHL10 cells [4]; read-out: Cytotox SUDHL10 [M] (median), IC50, median) | EC50 (SUDHL5 cells [5]) [µM] | IC50 (SUDHL5 cells [1]; Homo sapiens, SU-DHL-5, 72 h) [M] | IC50 (AMO-1 cells; Homo sapiens, AMO1, 72 h) [M] | IC50 (SUDHL5 cells [3]; [7]) [M] | EC50 (SUDHL5 cells [5]; Homo sapiens, SU-DHL-5, 3 h) [µM] | IC50 (SUDHL10 cells [4]; [8]) [M] | EC50 (SUDHL10 cells [2]; Homo sapiens, SU-DHL10, 3 h) [µM] |
| --- | --- | --- | --- | --- | --- | --- | --- | --- | --- | --- | --- | --- |
| CCc1c2c(nn1C)CCCN(C)CCn1c(C(=O)O)c(CCCOc3cccc4cc(F)ccc34)c3ccc(Cl)c-2c31 (single isomer, unassigned) [Example 117, (−)-4-chloro-3-ethyl-7-{3-[(6-fluoronaphthalen-1-yl)oxy]propyl}-2,12-dimethyl-10,11,12,13,14,15-hexahydro-2H-pyrazolo[3′,4′:8,9][1,4]diazacycloundecino[10,11,1-hi]indole-8-carboxylic acid] | 3.4e-06 | 2.6 | 1.2e-06 | 2.6e-06 | 2.3e-06 | 2.4 | – | – | – | – | – | – |
| CCc1c2c(nn1C)CNCCCCn1c(C(=O)O)c(CCCOc3cccc4cc(F)ccc34)c3ccc(Cl)c-2c31 (racemic) [Example 130, (rac)-4-chloro-3-ethyl-7-{3-[(6-fluoronaphthalen-1-yl)oxy]propyl}-2-methyl-10,11,12,13,14,15-hexahydro-2H-pyrazolo[3′,4′:8,9][1,6]diazacycloundecino[10,11,1-hi]indole-8-carboxylic acid] | – | – | – | – | – | – | 7.5e-06 | 6.3e-06 | 7.1e-06 | 7.3 | – | – |
| CCc1c2c(nn1C)COCC1CC1Cn1c(C(=O)O)c(CCCOc3cccc4cc(F)ccc34)c3ccc(Cl)c-2c31 (single isomer, unassigned; (-)) [Example 108, (−)-3-chloro-4-ethyl-14-{3-[(6-fluoronaphthalen-1-yl)oxy]propyl}-5-methyl-5,7,9a,10,10a,11-hexahydro-9H-cyclopropa[3,4]pyrazolo[4′,3′:9,10][1,6]oxazacycloundecino[8,7,6-hi]indole-13-carboxylic acid] | 1e-05 | 7.8 | 1.3e-06 | 7e-06 | – | 6.3 | – | – | – | – | – | – |
| CCc1c2c(nn1C)CCCCCCn1c(C(=O)O)c(CCCOc3cccc4ccccc34)c3ccc(Cl)c-2c31 (racemic) [Example 51, (rac)-4-chloro-3-ethyl-2-methyl-7-{3-[(naphthalen-1-yl)oxy]propyl}-10,11,12,13,14,15-hexa-hydro-2H-pyrazolo[4′,3′:4,5]azacycloundecino[3,2,1-hi]indole-8-carboxylic acid] | – | – | – | – | – | – | 6.7e-06 | – | 8.4e-06 | – | 8.6e-06 | – |
| CCc1c2c(nn1C)CN(CCC1CCOCC1)CCCCn1c(C(=O)O)c(CCCOc3cccc4cc(F)ccc34)c3ccc(Cl)c-2c31 (single isomer, unassigned; enantiomer 2) [Example 137, 4-chloro-3-ethyl-7-{3-[(6-fluoronaphthalen-1-yl)oxy]propyl}-2-methyl-14-[2-(oxan-4-yl)ethyl]-10,11,12,13,14,15-hexahydro-2H-pyrazolo[3′,4′:8,9][1,6]diazacycloundecino[10,11,1-hi]indole-8-carboxylic acid N-ethylethanamine (Enantiomer 2)] | – | – | – | – | – | – | 5.1e-06 | 5e-06 | 8.2e-06 | – | 7.7e-06 | – |
| CCc1nn(CCN2CCOCC2)c2c1-c1c(Cl)ccc3c(CCCOc4cccc5ccccc45)c(C(=O)O)n(c13)C/C=C\CN(C)C2 (racemic) [Example 42, (rac)-(11Z)-4-chloro-3-ethyl-14-methyl-1-[2-(morpholin-4-yl)ethyl]-7-{3-[(naphthalen-1-yl)oxy]-propyl}-10,13,14,15-tetrahydro-1H-pyrazolo[3′,4′:8,9][1,6]diazacycloundecino[10,11,1-hi]indole-8-carboxylic acid] | – | – | – | – | – | – | 2.7e-06 | – | 4e-06 | 2.8 | – | 9.4 |
| CCc1c2c(nn1C)COCCCCn1c(C(=O)O)c(CCCOc3cccc4cc(F)ccc34)c3ccc(Cl)c-2c31 (single isomer, unassigned; enantiomer 1) [Example 69, 4-chloro-3-ethyl-7-{3-[(6-fluoronaphthalen-1-yl)oxy]propyl}-2-methyl-2,10,11,12,13,15-hexahydropyrazolo[4′,3′:9,10][1,6]oxazacycloundecino[8,7,6-hi]indole-8-carboxylic acid (Enantiomer 1)] | – | – | – | – | – | – | 4.2e-06 | – | 2.3e-06 | 1.8 | 7.3e-06 | 8.3 |
